Columns and labels:
[1] = Metabolic stability in human liver S-9 fractions (LC/MS of parent remaining); details: for Liver S-9 stability factor: % parent remaining after 30 min at 37 C divided by average % ranolazine remaining (57%), 10 μM compound, 2 mg/mL S9
Description: Metabolic Stability: As a measure of metabolic stability the compounds of this invention were incubated with human liver S-9 microsomal fractions. After, 30 minutes at 37 C., the amount of parent drug remaining was determined using LC-mass spec. The response factors for each compound was determined by establishing a standard curve and using an internal standard during the analysis of the samples. […] The compounds of this invention were assayed as described in the protocol below and the percentage of parent remaining was divided by the average % of ranolazine remaining (57%) affording a metabolic stability factor.
The purpose of this experiment is to compare the percentages remaining for compounds of this invention with the percentage remaining for ranolazine after 30 minutes of incubation with human liver S9 fractions.
The following reagents were used; Potassium phosphate, 0.5M pH 74. (incubation buffer), kept at room temperature; 0.05M MgCl2 kept at 4° C.; β-Nicotinamide adenine dinucleotide phosphate, tetrasodium salt, reduced form (NADPH), 0.02M solution in water (˜16.6 mg/mL) from Sigma Lot # 79H7044 prepared on day of use.
Incubation mixtures were prepared as follows:
Combine all components with incubation buffer and re-pipette 200 μL/tube+25 μL of the compound being tested along with 25 μL of S-9.
After 5 min of pre-incubation at 37° C., at 0 and 30 min after starting the reaction, a 50 μl aliquot of the incubation mixture was removed and added to 100 μL of 9:1 acetonitrile: methanol containing the internal standard.
The mixture was centrifuged and a 100 μL aliquot of the supernatant was diluted in 1 mL of solvent C (0.1% Formic Acid in water). Then samples were analyzed for change between the ratio of compound to internal standard at time zero and 30 minutes by LC/MS (injected 10 μL).
Samples were analyzed for the starting compounds and potential metabolite/s by LC/MS using an internal standard on a Micromass platform mass spec with a Keystone Inc. BDS ODS-C18 column with a flow rate of 0.25 ml/min.

[2] = tested on: mitochondrial fatty acid oxidation using palmitoyl CoA as substrate; assay: Palmitoyl CoA oxidation in isolated rat heart mitochondria (14C bicarbonate trapped); format: biochemical; details: 15 min at 30° C.
Description: (§1) Rat heart mitochodria were isolated by the method of Nedergard and Cannon (Methods in Enzymol. 55, 3, 1979).
(§2) Palmitoyl CoA oxidation—The Palmitoyl CoA oxidation was carried out in a total volume of 100 microliters containing the following agents: 110 mM KCl, 33 mM Tris buffer at pH 8, 2 mM KPi, 2 mM MgCl2, 0.1 mM EDTA, 14.7 microM defatted BSA, 0.5 mM malic acid, 13 mM carnitine, 1 mM ADP, 52 micrograms of mitochondrial protein, and 16 microM 1-C14 palmitoyl CoA (Sp. Activity 60 mCi/mmole; 20 microCi/ml, using 5 microliters per assay). The compounds of this invention were added in a DMSO solution at the following concentrations: 100 microM, 30 microM, and 3 microM. In each assay, a DMSO control was used. After 15 min at 30° C., the enzymatic reaction was centrifuged (20,000 g for 1 min), and 70 microliters of the supernatant was added to an activated reverse phase silicic acid column (approximately 0.5 ml of silicic acid). The column was eluted with 2 ml of water, and 0.5 ml of the eluent was used for scintillation counting to determine the amount of C^14 trapped as C^14 bicarbonate ion. The data are presented as % activity of control.

[3] = tested on: mitochondrial fatty acid oxidation using palmitoyl carnitine as substrate; assay: Palmitoyl carnitine oxidation in isolated rat heart mitochondria (14C bicarbonate trapped); format: biochemical; details: 15 min at 30° C.
Description: as §1
as §2, with “Carnitine Oxidation—The” for “CoA oxidation—The”, “carnitine” for “CoA”, “0.1mg/ml of” for “14.7 microM”, “3” for “13 mM carnitine, 1”, “43” for “16”

Liver S-9 stability factor [1]	SMILES	Palmitoyl CoA oxidation activity (% of DMSO control) ([2]; 100 μM compound) [%]	also measured
1.46	Cc1cccc(C)c1NC(=O)CN1CCN(CC(O)Cc2ccc3c(c2)OCO3)CC1 (stereo not shown) [Compound 7, 2-[4-(3-Benzo[1,3]dioxol-5-yl-2-hydroxy-propyl)-piperazin-1-yl]-N-(2,6-dimethyl-phenyl)-acetamide]	–	–
1.33	COc1ccc(CC(O)CN2CCN(CC(=O)Nc3c(C)cccc3C)CC2)cc1 (stereo not shown) [Compound 11, N-(2,6-dimethylphenyl)-2-{4-[2-hydroxy-3-(4-methoxyphenyl)propyl]piperazinyl}acetamide]	83	Palmitoyl CoA oxidation activity (% of DMSO control) ([2]; 30 μM compound): 92%
1.0	COc1ccccc1OCC(O)CN1CCN(CC(=O)Nc2c(C)cccc2C)CC1 (racemic) [Ranolazine, (±)-N-(2,6-dimethylphenyl)-4-[2-hydroxy-3-(2-methoxyphenoxy)-propyl]-1-piperazineacetamide, reference compound]	75	Palmitoyl CoA oxidation activity (% of DMSO control) ([2]; 30 μM compound): 90%; Mitochondrial palmitoyl carnitine oxidation, % activity of DMSO control ([3]; 30 μM compound): 98%; Mitochondrial palmitoyl carnitine oxidation, % activity of DMSO control ([3]; 100 μM compound): 63%; percentage of ranolazine remaining at the 30 minute time point ([1]; human liver S-9, 30 minutes at 37 C, average of five experiments): 57%
1.18	Cc1cccc(C)c1NC(=O)CN1CCN(CC(O)CCc2ccccc2)CC1 (stereo not shown) [Compound 9, N-(2,6-dimethylphenyl)-2-[4-(2-hydroxy-4-phenylbutyl)piperazinyl]acetamide]	84	Palmitoyl CoA oxidation activity (% of DMSO control) ([2]; 30 μM compound): 84%
–	Cc1cccc(C)c1NC(=O)CN1CCN(CC(O)CCc2ccc(C(C)(C)C)cc2)CC1 (stereo not shown) [Compound 19, 2-(4-{4-[4-(tert-butyl)phenyl]-2-hydroxybutyl}piperazinyl)-N-(2,6-dimethylphenyl)acetamide]	35	–
–	Cc1cccc(C)c1NC(=O)CN1CCN(CC(O)CCc2ccccc2F)CC1 (stereo not shown) [Compound 20, N-(2,6-dimethylphenyl)-2-{4-[4-(2-fluorophenyl)-2-hydroxybutyl]piperazinyl}acetamide]	56	–
1.49	Cc1cccc(C)c1NC(=O)C(C)(C)N1CCN(CC(O)Cc2ccc3c(c2)OCO3)CC1 (stereo not shown) [Compound 22]	–	–
0.5	Cc1cccc(C)c1NC(=O)C(C)(C)N1CCN(CC(O)Cc2ccccc2)CC1 (stereo not shown) [Compound 23, N-(2,6-Dimethyl-phenyl)-2-[4-(2-hydroxy-3-phenyl-propyl)-piperazin-1-yl]-isobutyramide]	–	–
1.38	Cc1cccc(C)c1NC(=O)CN1CCN(CC(O)Cc2ccccc2)CC1 (stereo not shown) [Compound 12, N-(2,6-dimethylphenyl)-2-{4-[2-hydroxy-3-phenylpropyl]piperazinyl}acetamide]	42	Palmitoyl CoA oxidation activity (% of DMSO control) ([2]; 30 μM compound): 95%; Mitochondrial palmitoyl carnitine oxidation, % activity of DMSO control ([3]; 100 μM compound): 56%
1.03	COc1ccccc1CC(O)CN1CCN(CC(=O)Nc2c(C)cccc2C)CC1 (stereo not shown) [Compound 10, N-(2,6-dimethylphenyl)-2-{4-[2-hydroxy-3(2-methoxyphenyl)-propyl]piperazinyl}acetamide]	–	–
0.10	Cc1cccc(C)c1NC(=O)CN1CCN(CC(O)Cc2cccc3ccccc23)CC1 (stereo not shown) [Compound 13, N-(2,6-dimethylphenyl)-2-[4-(2-hydroxy-3-naphthylpropyl)piperazinyl]acetamide]	–	–
–	Cc1cccc(C)c1NC(=O)CN1CCN(CC(O)CCc2ccc(C(F)(F)F)cc2)CC1 (stereo not shown) [Compound 21, N-(2,6-dimethylphenyl)-2-(4-{2-hydroxy-4-[4-(trifluoromethyl)phenyl]butyl}piperazinyl)acetamide]	56	–
–	COc1ccc(CCC(O)CN2CCN(CC(=O)Nc3c(C)cccc3C)CC2)cc1 (stereo not shown) [Compound 16, N-(2,6-dimethylphenyl)-2-{4-[4-(4-methoxyphenyl)-2-hydroxybutyl]piperazinyl}acetamide]	37	–
0.68	Cc1cccc(C)c1NC(=O)CN1CCN(CC(O)CCc2ccccc2Cl)CC1 (stereo not shown) [Compound 18, N-(2,6-dimethylphenyl)-2-{4-[4-(2-chlorophenyl)-2-hydroxybutyl]piperazinyl}acetamide]	78	–
1.05	COc1cc(CC(O)CN2CCN(CC(=O)Nc3c(C)cccc3C)CC2)cc(OC)c1OC (stereo not shown) [Compound 24, N-(2,6-dimethylphenyl)-2-{4-[2-hydroxy-3-(3,4,5-trimethoxyphenyl)prophyl]piperazinyl}acetamide]	72	–
0.71	Cc1cccc(C)c1NC(=O)CN1CCN(CC(O)CCc2c(F)cccc2F)CC1 (stereo not shown) [Compound 17, 2-{4-[4-(2,6-difluorophenyl)-2-hydroxybutyl]piperazinyl}-N-(2,6-dimethylphenyl)acetamide]	78	–
